{"source": "paper PMC8333425", "about": "“Discovery of a dual Ras and ARF6 inhibitor from a GPCR endocytosis screen” (Nature Communications, 2021)", "key": {"ERK1/2 activation by B2R": {"test_system": "ERK1/2 activation by B2R", "assay": "Western blot of B2R-mediated ERK1/2 phosphorylation", "assay_type": "cell-based, human", "settings": "for p-ERK1/2 over ERK1/2, normalized to basal (0 min), B2R: Comp 21 50 μM, individual experiments", "procedure": "HEK293SL cells (10^5 cells per well) were seeded in a poly-L-lysine-coated six-well plate and transiently transfected with 3 μg Flag-AT1R, HA-B2R or HA-β2AR and/or 500 ng Flag-MEK1-WT, Flag-MEK1-DD, Flag-BRAF-WT, Flag-BRAF-V600E, Flag-K-Ras-WT, Flag-K-Ras-G12V, HA-ARF6-WT, or HA-ARF6-T27N. Gαq/11 KO and βarr1/2 KO cells were seeded onto 100 mm dishes at a density of 10^6 cells per dish. Next day, cells were transfected with 3 μg AT1R alone or along with 500 ng of β-arrestin2 using PEI. After 18 h of transfection, cells were detached and re-seeded onto poly-L-lysine coated 12-well plates (~1.5–2 × 10^5cells/well) for subsequent experiments. Forty-eight hours post transfection, in a 37 °C water bath, cells were serum-starved for 30 min, pretreated with DMSO (0.1%) or compound 21/Rasarfin (50 µM or at indicated concentrations) for 30 min, then stimulated or not with the indicated ligand [AngII (1 µM), BK (1 µM), Iso (10 µM) or EGF (100 ng/ml)] at indicated times. Cells were put on ice, washed with PBS and solubilized in 2x laemmli buffer (250 mM Tris–HCl pH 6.8, 2% SDS (w/v), 10% glycerol (v/v), 0.01% bromophenol blue (w/v) and 5% β-mercaptoethanol (v/v)) by heating at 65 °C for 15 min. Lysates were resolved on 10 or 14% SDS-PAGE, transferred to nitrocellulose membranes and immunoblotted for p-ERK1/2, ERK1/2, p-Akt, Akt, HA, Myc, β-actin or FLAG. ImageLab 5.2 software was used to quantify the digital blots as fold of the phosphorylated protein over total protein, which were then normalized as indicated in the figure legends. Uncropped immunoblots are provided in the Source Data file."}, "Rac/Cdc42": {"test_system": "Rac/Cdc42", "assay": "Rac/Cdc42 BRET sensor (PAK-CRIB-RlucII / rGFP-CAAX), AT1R-mediated", "assay_type": "cell-based, human", "description": "Since 21 inhibited both ERK1/2 and Akt activation by GPCRs and EGFR, we looked at a common target involved in both pathways. The small G protein Ras is an upstream regulator of both Ras-RAF-MEK-ERK and PI3K/Akt signaling pathways[35],[36]. Therefore, we explored 21’s ability to inhibit Ras activity using GST-Raf1-Ras-binding domain (RBD) in a pull-down assay. A reduction of 60% in GTP-bound Ras was noticed in pulled-down from cells treated with 21 and stimulated with either AT1R or EGFR, as compared to vehicle-treated cells (Fig. 4a, b). Complementary to this in vitro assay, we generated a Ras BRET assay, using the Raf-Ras binding domain tagged with RlucII (Raf1-RBD-RlucII) and the rGFP at the PM (rGFP-CAAX) (Supplementary Fig. 3c), to assess 21’s effects on Ras activation kinetics. […] Overexpression of either the active form of Ras (G12V) or SOS1 anchored at the PM (SOS-CAAX) produced a robust basal BRET signal that was no longer modulated by receptor activation (Supplementary Fig. 3d). […] 21’s potency to inhibit ARF6 and Ras is also consistent with its relative efficacy for inhibiting AT1R internalization and MAPK, respectively, when used at 50 μM (e.g., around 7 and 70 times the respective IC50s) (Figs. 2e and 3a). We also assessed if 21 was acting as a pan small G protein inhibitor by testing its effect on Rho and Rac/Cdc42. […] To assess Rac/Cdc42 activity, we generated a Rac/Cdc42 BRET sensor that consisted of the PAK-CRIB domain fused to RlucII (PAK-CRIB-RlucII) and the rGFP-CAAX (Supplementary Fig. 3e). PAK-CRIB, which binds to active Rac/Cdc42, was recruited to the PM upon AngII stimulation of cells and generated a robust BRET signal, which was blocked by the overexpression of the DN Rac1-T17N. Overexpression of the constitutively active Rac1-Q61L increased the basal BRET, which was no longer modulated by AT1R stimulation (Supplementary Fig. 3f).\nHEK293SL cells were seeded at a density of 7.5 × 10^5 cells per 100-mm dish and 24 h later, transiently transfected as such. For receptor internalization experiments, cells were transfected with 0.12 μg AT1R-RlucII, B2R-RlucII, or β2AR-RlucII and 0.48 μg of either rGFP-CAAX (to assess removal from the PM) or rGFP-FYVE (to assess accumulation in the endosomes). For β-arrestin recruitment assays, cells were transfected with 0.48 μg of receptor-YFP along with 0.12 μg of β-arrestin-RlucII. For β-arrestin/AP-2 binding experiments, cells were transfected with 1 μg Flag-AT1R, 1 μg β2-Adaptin-YFP, and 0.12 μg β-arrestin2-RlucII. For G protein activation, cells were transfected with 3 μg of sp-Flag-AT1R along with either 4.5 μg of the Gαq-polycistronic BRET sensor or 0.24 μg of the Gαi3-RlucII and 0.6 μg of GFP10-Gγ2 and Gβ1 sensors or 0.12 μg PKN-RBD-RlucII and 0.48 μg of rGFP-CAAX. For PKC activation, cells were transfected with 3 μg of sp-Flag-AT1R and 0.18 μg of the PKC sensor. For GTPase activation experiments, cells were transfected with 1 μg Flag-AT1R, 0.48 μg of rGFP-CAAX, and either 0.12 μg of GGA3-PBD-RlucII, PAK-CRIB-RlucII or Raf-RBD-RlucII. For biosensor validation experiments, cells were additionally transfected with 500 ng Flag-K-Ras-WT, Flag-K-Ras-G12V, Flag-K-Ras-SOS-CAAX, HA-ARF6-WT, HA-ARF6-T27N, Myc-Rac1-WT, Myc-Rac1-Q61L or Myc-Rac1-T17N. For PI3K/Akt activation experiments, cells were transfected with 0.48 μg of rGFP-CAAX and 0.12 μg of Akt (PH)-RlucII. After 18 h of transfection, the media was replaced and cells were divided for subsequent experiments. Cells were detached and seeded onto poly-L-ornithine-coated 96-well flat white bottom plates (BrandTech Scientific) at a density of 2.5 × 10^4 cells per well in media. The next day, cells were washed once with Tyrode’s buffer (140 mM NaCl, 2.7 mM KCl, 1 mM CaCl2, 12 mM NaHCO3, 5.6 mM D-glucose, 0.5 mM MgCl2, 0.37 mM NaH2PO4, 25 mM HEPES, pH 7.4) and left in Tyrode’s buffer. […]"}}, "note": "Several values for one entry are separate records, joined by “and”; a condition that tells them apart may be missing. Equal entries are not always repeated."}
{"smiles": "CC(C)C(=O)N1CCN(c2ccc(NC(=O)c3cc4ccccc4o3)cc2Cl)CC1", "note": "[Compound 21]", "values": [{"measurement": "MAPK response promoted by B2R", "setting": "ERK1/2 activation by B2R; 50 μM", "value": "blocked MAPK responses"}, {"measurement": "p-ERK1/2 over ERK1/2, normalized to basal (0 min), B2R", "setting": "ERK1/2 activation by B2R; time 0 min", "value": "1 (3×) and 1.039"}, {"measurement": "p-ERK1/2 over ERK1/2, normalized to basal (0 min), B2R", "setting": "ERK1/2 activation by B2R; time 2 min", "value": "1.954 and 3.081 and 1.486 and 1.1152"}, {"measurement": "p-ERK1/2 over ERK1/2, normalized to basal (0 min), B2R", "setting": "ERK1/2 activation by B2R; time 5 min", "value": "0.9797 and 0.9619 and 1.157 and 1.051"}, {"measurement": "Rac/Cdc42 activation mediated by AT1R (BRET sensor)", "setting": "Rac/Cdc42", "value": "failed to inhibit Rac/Cdc42 activation"}, {"measurement": "Rac MEAN (Fig.4d)", "setting": "Rac/Cdc42; Log [Comp 21] (M) -4", "value": 98.9456}, {"measurement": "Rac MEAN (Fig.4d)", "setting": "Rac/Cdc42; Log [Comp21] (M) -4.3", "value": 92.4505}, {"measurement": "Rac MEAN (Fig.4d)", "setting": "Rac/Cdc42; Log [Comp21] (M) -5", "value": 96.5837}, {"measurement": "Rac MEAN (Fig.4d)", "setting": "Rac/Cdc42; Log [Comp21] (M) -5.3", "value": 100.464}, {"measurement": "Rac MEAN (Fig.4d)", "setting": "Rac/Cdc42; Log [Comp 21] (M) -6", "value": 102.348}, {"measurement": "Rac MEAN (Fig.4d)", "setting": "Rac/Cdc42; Log [Comp21] (M) -6.3", "value": 96.0354}, {"measurement": "Rac MEAN (Fig.4d)", "setting": "Rac/Cdc42; Log [Comp 21] (M) -7", "value": 96.1409}]}
